This is an account of results in patent US12390456B2, “Pridopidine for treating Huntington's disease” (PRILENIA NEUROTHERAPEUTICS LTD., priority 2013, dated 2025).

Experiment [1] relates to patients with HD. To be noted: cited from earlier work.
The subject of experiment [2] is patients with HD. To be noted: 26 weeks; 67.5 mg, 90 mg and 112.5 mg bid. The source says:
The model includes the following fixed effects: categorical week in study by treatment interaction, center, neuroleptic use or no use, and baseline UHDRS-TMS score. The unstructured covariance matrix for repeated observations within patients is used.

For experiment [3], the system named is patients with HD. The procedure:
Study ACR16C007 explored the efficacy of 44 mg pridopidine once daily (qd) in 58 patients.

For experiment [4], the system named is patients with HD. To be noted: 12 weeks; 67.5 mg, 90 mg and 112.5 mg bid. The protocol: The primary efficacy variable and endpoint for this study is change from baseline in the UHDRS-TMS (defined as the sum of all UHDRS motor domains ratings) at Week 12.
The change from baseline in TMS is analyzed using a Repeated Measures model (SAS® MIXED procedure with REPEATED sub-command). The model includes the following fixed effects: categorical week in trial by treatment interaction, center, neuroleptic use or no use and baseline TMS score. The unstructured covariance matrix for repeated observations within patients is used.

Experiment [5] deals with patients with HD. To be noted: 26 weeks; 67.5 mg, 90 mg and 112.5 mg bid. The source says: The Modified Physical Performance Test (mPPT) is used instead of the Physical Performance Test (PPT). The Walk-12 scale in used instead of the Multiple Sclerosis Walking Scale (MSWS).
This is another data set of the same source.

Where two headings read alike, the source gives them in different places.

For `COc1cc2c(cc1OC)C1CC(=O)C(CC(C)C)CN1CC2` (stereo not drawn) [tetrabenazine], the “effect on motor components other than chorea” value in the experiment on patients with HD [1] (in vivo) is “no significant effect”. In addition, the “improvement on the UHDRS-TMS” value with patients with HD [1] (p=0.075, 45 to 47 points at baseline) was 3.3 points.
Consider `CCCN1CCC(c2cccc(S(C)(=O)=O)c2)CC1` [pridopidine, 4-[3-(methylsulfonyl)phenyl]-1-propyl-piperidine], for which the “changes from baseline in UHDRS-TMS” value in the experiment with patients with HD [2] and with patients with HD [5] was “Statistically significant changes” throughout. Besides, in the experiment on patients with HD [3] (45 mg bid, HART and MermaiHD), the “effect on mMS” value was “did not reach the pre-specified significance criteria”. The “improvement in UHDRS-TMS relative to placebo” value with patients with HD [3] (45 mg bid, MermaiHD and HART) is “approximately 3 points”. Besides, in the experiment with patients with HD [3] (HART and MermaiHD), the “findings on the TMS” value is on record as “statistically significant findings”. The “efficacy in treating motor symptoms in HD (mMS and TMS)” value in the experiment with patients with HD [3] (HART study, 10, 22.5 and 45 mg bid, 12 weeks) was “dose-dependent efficacy”. Further, in the experiment with patients with HD [4], the “changes from baseline in TMS” value is “Statistically significant changes”.
